Source: the supplement of paper PMC8976852
± gives the standard deviation of the averaged measurements.

What was measured:
Test in all cases: activity (1 - area under the dose-response curve within the screened range) (fraction); higher = more sensitive
Conditions in all cases: treatment time: 72 h
HCM-SANG-0532-C20 = test system: HCM-SANG-0532-C20 (colorectal cancer organoid)
Method: (§1)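 Patient-derived cancer organoids (colorectal and oesophageal, HCM-SANG models) were grown for up to 6 months in 5% or 80% ECM (BME-2), then seeded in 384-well plates on an ECM layer and treated with 72 compounds for 3 days. Each compound used a 7-point half-log dilution series spanning a 1000-fold range, in technical triplicate and biological duplicate. Dose-response curves were fitted with a non-linear mixed effects model; fits with RMSE > 0.3 were removed, and activity = 1 - AUC within the screened dose range (0 = no activity, 1 = maximum).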

HCM-SANG-0270-C20 = test system: HCM-SANG-0270-C20 (colorectal cancer organoid)
Method: as §1

HCM-SANG-0266-C20 = test system: HCM-SANG-0266-C20 (colorectal cancer organoid)
Method: as §1

HCM-SANG-0291-C15 = test system: HCM-SANG-0291-C15 (oesophageal cancer organoid)
Method: as §1

[1] = ECM percentage in culture prior to screening 5 %
[2] = ECM percentage in culture prior to screening 80 %

Structure (SMILES)	activity (HCM-SANG-0532-C20; [1])	activity (HCM-SANG-0532-C20; [2])	activity (HCM-SANG-0270-C20; [1])	activity (HCM-SANG-0270-C20; [2])	activity (HCM-SANG-0266-C20; [1])	activity (HCM-SANG-0266-C20; [2])	activity (HCM-SANG-0291-C15; [1])	activity (HCM-SANG-0291-C15; [2])
Cn1cc(C2=C(c3ccc(Cl)cc3Cl)C(=O)NC2=O)c2ccccc21	0.0778 ± 0.033	0.0951 ± 0.05	0.0629 ± 0.02	0.0482 ± 0.021	0.0916 ± 0.037	0.0697 ± 0.056	0.0549 ± 0.019	0.0522 ± 0.022
Cn1nnc2c(C(N)=O)ncn2c1=O [Temozolomide]	0.0253 ± 0.0078	0.024 ± 0.0046	0.028 ± 0.013	0.0261 ± 0.0071	0.0575 ± 0.021	0.0651 ± 0.031	0.02 ± 0.0034	0.0234 ± 0.0089
C#Cc1cccc(Nc2ncnc3cc(OCCOC)c(OCCOC)cc23)c1 [Erlotinib]	0.207 ± 0.091	0.209 ± 0.06	0.148 ± 0.1	0.121 ± 0.086	0.171 ± 0.037	0.129 ± 0.053	0.204 ± 0.026	0.198 ± 0.033
CNC(=O)c1cc(Oc2ccc(NC(=O)Nc3ccc(Cl)c(C(F)(F)F)c3)cc2)ccn1 [Sorafenib]	0.0823 ± 0.0072	0.123 ± 0.033	0.0957 ± 0.011	0.102 ± 0.068	0.122 ± 0.014	0.106 ± 0.013	0.0375 ± 0.016	0.0266 ± 0.009
Cc1cccc(-c2[nH]c(C(C)(C)C)nc2-c2ccc3c(c2)OCO3)n1	0.0437 ± 0.015	0.0531 ± 0.017	0.0741 ± 0.023	0.0613 ± 0.046	0.0398 ± 0.022	0.0534 ± 0.016	0.0256 ± 0.0074	0.0336 ± 0.018
Cc1nc(Nc2ncc(C(=O)Nc3c(C)cccc3Cl)s2)cc(N2CCN(CCO)CC2)n1 [Dasatinib]	0.0937 ± 0.048	0.0525 ± 0.021	0.0518 ± 0.018	0.045 ± 0.018	0.129 ± 0.069	0.0743 ± 0.054	0.0426 ± 0.021	0.0463 ± 0.017
c1cn2cc(-c3ccc4cn[nH]c4c3)nc(Nc3ccc(N4CCOCC4)cc3)c2n1 [Entospletinib]	0.0354 ± 0.019	0.0256 ± 0.0054	0.0261 ± 0.0085	0.0204 ± 0.0032	0.0298 ± 0.01	0.0227 ± 0.0068	0.0238 ± 0.0074	0.0204 ± 0.0022
COc1cc(CCc2cc(NC(=O)c3ccc(N4CC(C)NC(C)C4)cc3)n[nH]2)cc(OC)c1 (stereo not given) [AZD4547]	0.0579 ± 0.039	0.0368 ± 0.013	0.0358 ± 0.023	0.0323 ± 0.017	0.0268 ± 0.015	0.0233 ± 0.0077	0.0191 ± 0.001	0.0289 ± 0.014
Cc1cc(-c2ncc(CC(=O)Nc3ccc(-c4cnccn4)cn3)cc2C)ccn1 [LGK974]	0.0269 ± 0.005	0.0397 ± 0.009	0.0409 ± 0.013	0.0485 ± 0.035	0.0334 ± 0.014	0.0329 ± 0.017	0.0263 ± 0.0099	0.0251 ± 0.0087
O=c1[nH]cc(F)c(=O)[nH]1 [5-Fluorouracil]	0.0766 ± 0.035	0.121 ± 0.044	0.123 ± 0.031	0.103 ± 0.075	0.137 ± 0.068	0.12 ± 0.061	0.0848 ± 0.043	0.063 ± 0.035
C[C@@H]1COCCN1c1cc(C2([S@](C)(=N)=O)CC2)nc(-c2cc[nH]c3nccc2-3)n1 [AZD6738]	0.116 ± 0.065	0.108 ± 0.026	0.09 ± 0.039	0.0864 ± 0.052	0.185 ± 0.037	0.178 ± 0.033	0.199 ± 0.027	0.211 ± 0.037
Cc1nc(NC(=O)N2CCC[C@H]2C(N)=O)sc1-c1ccnc(C(C)(C)C(F)(F)F)c1 [Alpelisib]	0.0918 ± 0.087	0.0904 ± 0.033	0.036 ± 0.027	0.0216 ± 0.0057	0.13 ± 0.052	0.0656 ± 0.019	0.0264 ± 0.0063	0.0261 ± 0.011
CNC(=O)c1ccccc1Sc1ccc2c(/C=C/c3ccccn3)n[nH]c2c1 [Axitinib]	0.112 ± 0.021	0.135 ± 0.035	0.125 ± 0.03	0.109 ± 0.037	0.147 ± 0.033	0.143 ± 0.047	0.0739 ± 0.021	0.056 ± 0.023
N#CC[C@H](C1CCCC1)n1cc(-c2ncnc3[nH]ccc23)cn1 [Ruxolitinib]	0.0295 ± 0.011	0.0236 ± 0.0026	0.0225 ± 0.0051	0.0229 ± 0.007	0.0203 ± 0.00098	0.03 ± 0.01	0.0206 ± 0.0044	0.0196 ± 0.0023
O=C(c1cc(Cc2n[nH]c(=O)c3ccccc23)ccc1F)N1CCN(C(=O)C2CC2)CC1 [Olaparib]	0.0528 ± 0.018	0.0726 ± 0.027	0.0818 ± 0.017	0.0664 ± 0.027	0.0602 ± 0.028	0.0424 ± 0.017	0.0587 ± 0.015	0.0412 ± 0.017
COc1cc(Nc2ncc3c(n2)-c2ccc(Cl)cc2C(c2c(F)cccc2OC)=NC3)ccc1C(=O)O [Alisertib]	0.185 ± 0.063	0.148 ± 0.027	0.104 ± 0.078	0.124 ± 0.06	0.266 ± 0.08	0.31 ± 0.081	0.0593 ± 0.019	0.0714 ± 0.026
Nc1nc2[nH]cc(CCc3ccc(C(=O)N[C@@H](CCC(=O)O)C(=O)O)cc3)c2c(=O)[nH]1 [Pemetrexed]	0.0604 ± 0.023	0.0425 ± 0.012	0.117 ± 0.049	0.164 ± 0.1	0.0697 ± 0.056	0.0926 ± 0.047	0.0737 ± 0.036	0.0434 ± 0.025
Nc1ccn([C@@H]2O[C@H](CO)[C@@H](O)C2(F)F)c(=O)n1 [Gemcitabine]	0.247 ± 0.042	0.423 ± 0.04	0.337 ± 0.13	0.234 ± 0.17	0.624 ± 0.097	0.465 ± 0.13	0.813 ± 0.021	0.801 ± 0.049
Nc1ccccc1NC(=O)c1ccc(CNC(=O)OCc2cccnc2)cc1 [Entinostat]	0.0795 ± 0.022	0.102 ± 0.025	0.0723 ± 0.025	0.0687 ± 0.041	0.0903 ± 0.02	0.0905 ± 0.023	0.124 ± 0.045	0.119 ± 0.047
C[C@]1(O)C[C@@H](c2nc(-c3ccc4ccc(-c5ccccc5)nc4c3)c3c(N)nccn32)C1 [Linsitinib]	0.033 ± 0.015	0.0378 ± 0.015	0.0341 ± 0.014	0.0245 ± 0.0092	0.0577 ± 0.033	0.0295 ± 0.017	0.0216 ± 0.0028	0.0248 ± 0.013
O=C1NC(=NCc2cccs2)S/C1=C\c1ccc2ncccc2c1 [RO-3306]	0.117 ± 0.033	0.108 ± 0.016	0.0909 ± 0.041	0.0974 ± 0.033	0.123 ± 0.017	0.152 ± 0.035	0.0636 ± 0.017	0.0709 ± 0.026
C=CCn1c(=O)c2cnc(Nc3ccc(N4CCN(C)CC4)cc3)nc2n1-c1cccc(C(C)(C)O)n1 [MK-1775]	0.156 ± 0.019	0.19 ± 0.027	0.255 ± 0.042	0.205 ± 0.11	0.407 ± 0.048	0.348 ± 0.044	0.257 ± 0.036	0.24 ± 0.051
CS(=O)(=O)N1CCN(Cc2cc3nc(-c4cccc5[nH]ncc45)nc(N4CCOCC4)c3s2)CC1 [Pictilisib]	0.12 ± 0.07	0.155 ± 0.039	0.0973 ± 0.037	0.0554 ± 0.033	0.198 ± 0.059	0.152 ± 0.068	0.0595 ± 0.032	0.0514 ± 0.019
CC(C)(C)c1nc(-c2cccc(NS(=O)(=O)c3c(F)cccc3F)c2F)c(-c2ccnc(N)n2)s1 [Dabrafenib]	0.0306 ± 0.018	0.0604 ± 0.032	0.035 ± 0.012	0.0243 ± 0.0073	0.138 ± 0.084	0.0841 ± 0.044	0.0243 ± 0.0054	0.0207 ± 0.0019
NC(=O)Nc1cc(-c2cccc(F)c2)sc1C(=O)N[C@H]1CCCNC1 [AZD7762]	0.14 ± 0.056	0.177 ± 0.035	0.23 ± 0.049	0.199 ± 0.05	0.287 ± 0.041	0.232 ± 0.029	0.269 ± 0.016	0.248 ± 0.043
CN(C)C/C=C/C(=O)Nc1cc2c(Nc3ccc(F)c(Cl)c3)ncnc2cc1O[C@H]1CCOC1 [Afatinib]	0.171 ± 0.1	0.243 ± 0.07	0.311 ± 0.11	0.153 ± 0.13	0.308 ± 0.13	0.217 ± 0.11	0.414 ± 0.064	0.316 ± 0.06
Cc1cn(-c2cc(NC(=O)c3ccc(C)c(Nc4nccc(-c5cccnc5)n4)c3)cc(C(F)(F)F)c2)cn1 [Nilotinib]	0.111 ± 0.036	0.104 ± 0.021	0.0302 ± 0.0098	0.0451 ± 0.018	0.0558 ± 0.029	0.0445 ± 0.025	0.0659 ± 0.035	0.0726 ± 0.03
O=c1cc(N2CCOCC2)oc2c(-c3cccc4c3sc3ccccc34)cccc12 [NU7441]	0.124 ± 0.045	0.119 ± 0.022	0.0446 ± 0.03	0.0686 ± 0.032	0.104 ± 0.032	0.063 ± 0.018	0.0932 ± 0.037	0.0809 ± 0.029
C[C@@H](Oc1cc(-c2cnn(C3CCNCC3)c2)cnc1N)c1c(Cl)ccc(F)c1Cl [Crizotinib]	0.101 ± 0.068	0.154 ± 0.04	0.0695 ± 0.034	0.0648 ± 0.056	0.144 ± 0.035	0.0852 ± 0.034	0.0562 ± 0.022	0.065 ± 0.022
Cc1nc(-c2cn3c(n2)-c2ccc(-c4cnn(C(C)(C)C(N)=O)c4)cc2OCC3)n(C(C)C)n1 [Taselisib]	0.158 ± 0.12	0.249 ± 0.059	0.0832 ± 0.048	0.0597 ± 0.055	0.413 ± 0.13	0.263 ± 0.14	0.0465 ± 0.018	0.0601 ± 0.017
